Data from ChEMBL document CHEMBL1158592, “Synthesis and biological evaluation of isoflavone fatty acid esters with potential weight loss and hypolipidemic activities” (Bioorg Med Chem, 2010).
The source made the active and inactive calls. The rule behind the calls is not given here.

Legend:
Rattus norvegicus [1] = test: Antiobese activity in high fat diet-fed Sprague-Dawley rat assessed as plasma free fatty acid level at 50 mg/kg, ig administered QD for 30 days (reference value: 785.6+/-175.8 umol/L); format: functional; settings: route intragastric
Rattus norvegicus [2] = test: Antiobese activity in high fat diet-fed Sprague-Dawley rat assessed as plasma triglyceride level at 50 mg/kg, ig administered QD for 30 days (reference value: 1.25+/-0.23 mmol/L); format: functional; settings: route intragastric
3T3-L1 [3] = test: Decrease in triglyceride content in mouse 3T3L1 cells assessed as reduction of lipid droplets after 48 hrs by oil-red-O staining; format: functional, cell-based
Rattus norvegicus [4] = test: Antiobese activity in high fat diet-fed Sprague-Dawley rat assessed as body weight at 50 mg/kg, ig administered QD for 30 days (reference value: 355+/-36 g); format: functional; settings: route intragastric
3T3-L1 [5] = test: Increase in PPARgamma mRNA levels in mouse 3T3L1 cells at 100 umol/L by RT-PCR; format: functional, cell-based
Rattus norvegicus [6] = test: Antiobese activity in high fat diet-fed Sprague-Dawley rat assessed as plasma total cholesterol level at 50 mg/kg, ig administered QD for 30 days (reference value: 1.86+/-0.31 mmol/L); format: functional; settings: route intragastric
Rattus norvegicus [7] = test: Antiobese activity in high fat diet-fed Sprague-Dawley rat assessed as body fat mass measured per 100 g of body weight at 50 mg/kg, ig administered QD for 30 days (reference value: 6.4+/-1.4 g/100 g); format: functional; settings: route intragastric
3T3-L1 [8] = test: Inhibition of mouse 3T3L1 cells differentiation after 48 hrs by oil-red-O staining; format: functional, cell-based
Mus musculus [9] = test: Hypolipidemic activity in high fat diet-fed C57BL/6 mouse assessed as decrease in plasma total cholesterol level at 50 mg/kg, ig administered QD for 4 weeks; format: functional, organism-based; design: dose 50 mg/kg
3T3-L1 [10] = test: Antiproliferative activity against mouse 3T3L1 cells after 48 hrs by MTT assay; format: functional, cell-based
Mus musculus [11] = test: Reduction in plasma insulin level in high fat diet-fed C57BL/6 mouse at 50 mg/kg, ig administered QD for 4 weeks; format: functional, organism-based; design: dose 50 mg/kg
3T3-L1 [12] = test: Inhibition of mouse 3T3L1 cells differentiation assessed as morphological changes after 48 hrs by oil-red-O staining; format: functional, cell-based
Mus musculus [13] = test: Hypolipidemic activity in high fat diet-fed C57BL/6 mouse assessed as increase in plasma HDL level at 50 mg/kg, ig administered QD for 4 weeks; format: functional, organism-based; design: dose 50 mg/kg
Mus musculus [14] = test: Hypolipidemic activity in high fat diet-fed C57BL/6 mouse assessed as decrease in plasma LDL level at 50 mg/kg, ig administered QD for 4 weeks; format: functional, organism-based; design: dose 50 mg/kg
Mus musculus [15] = test: Hypolipidemic activity in high fat diet-fed C57BL/6 mouse assessed as decrease in plasma triglyceride level at 50 mg/kg, ig administered QD for 4 weeks; format: functional, organism-based; design: dose 50 mg/kg
[16] = Acute toxicity in ig dosed KM mouse by Bliss method; format: organism-based; settings: in vivo, po
Mus musculus [17] = test: Hypolipidemic activity in high fat diet-fed C57BL/6 mouse assessed as decrease in plasma triglyceride level at 200 mg/kg, ig administered QD for 4 weeks; format: functional, organism-based; design: dose 200 mg/kg
Mus musculus [18] = test: Hypolipidemic activity in high fat diet-fed C57BL/6 mouse assessed as decrease in plasma total cholesterol level at 200 mg/kg, ig administered QD for 4 weeks; format: functional, organism-based; design: dose 200 mg/kg
Mus musculus [19] = test: Hypolipidemic activity in high fat diet-fed C57BL/6 mouse assessed as decrease in plasma LDL level at 200 mg/kg, ig administered QD for 4 weeks; format: functional, organism-based; design: dose 200 mg/kg
Mus musculus [20] = test: Hypolipidemic activity in high fat diet-fed C57BL/6 mouse assessed as increase in plasma HDL level at 200 mg/kg, ig administered QD for 4 weeks; format: functional, organism-based; design: dose 200 mg/kg
Rattus norvegicus [21] = test: Antiobese activity in high fat diet-fed Sprague-Dawley rat assessed as body weight at 10 mg/kg, ig administered QD for 30 days (reference value: 355+/-36 g); format: functional; settings: route intragastric
Rattus norvegicus [22] = test: Antiobese activity in high fat diet-fed Sprague-Dawley rat assessed as plasma free fatty acid level at 10 mg/kg, ig administered QD for 30 days (reference value: 785.6+/-175.8 umol/L); format: functional; settings: route intragastric
Rattus norvegicus [23] = test: Antiobese activity in high fat diet-fed Sprague-Dawley rat assessed as plasma triglyceride level at 10 mg/kg, ig administered QD for 30 days (reference value: 1.25+/-0.23 mmol/L); format: functional; settings: route intragastric
Rattus norvegicus [24] = test: Antiobese activity in high fat diet-fed Sprague-Dawley rat assessed as body fat mass measured per 100 g of body weight at 10 mg/kg, ig administered QD for 30 days (reference value: 6.4+/-1.4 g/100 g); format: functional; settings: route intragastric
Rattus norvegicus [25] = test: Antiobese activity in high fat diet-fed Sprague-Dawley rat assessed as plasma total cholesterol level at 10 mg/kg, ig administered QD for 30 days (reference value: 1.86+/-0.31 mmol/L); format: functional; settings: route intragastric

Row | SMILES | Activity (Rattus norvegicus [1]) | Activity (Rattus norvegicus [2]) | Activity (3T3-L1 [3]) | Activity (Rattus norvegicus [4]) | Activity (3T3-L1 [5]) | Activity (Rattus norvegicus [6]) | Activity (Rattus norvegicus [7]) | inhibition (3T3-L1 [8]) | further results
1 | CCCCC/C=C\C/C=C\CCCCCCCC(=O)Oc1ccc2c(=O)c(-c3ccc(OC)cc3)coc2c1 | 603.8 µmol/L | 0.99 mmol/L | Active | 307 g | Active | 1.28 mmol/L | 4.3 g/100 g body weight | Active | 
2 | CCCCCCCC/C=C\CCCCCCCC(=O)Oc1ccc2c(=O)c(-c3ccc(OC)cc3)coc2c1 [OLEOYL FORMONONETIN] | 606.7 µmol/L | 0.91 mmol/L | Active | 309 g | Active | 1.31 mmol/L | 5 g/100 g body weight | Active | Activity (Mus musculus [9]): Active; Activity (3T3-L1 [10]): Active; Activity (Mus musculus [11]): Active; inhibition (3T3-L1 [12]): Active; Activity (Mus musculus [13]): Active; Activity (Mus musculus [14]): Active; Activity (Mus musculus [15]): Active; LD50 [16]: 2160 mg/kg
3 | O=C(O[C@H]1[C@H](OC(=O)c2cccnc2)[C@@H](OC(=O)c2cccnc2)[C@H](OC(=O)c2cccnc2)[C@@H](OC(=O)c2cccnc2)[C@H]1OC(=O)c1cccnc1)c1cccnc1 |  |  |  |  |  |  |  |  | Activity (Mus musculus [17]): Active; Activity (Mus musculus [18]): Active; Activity (Mus musculus [19]): Active; Activity (Mus musculus [20]): Active
4 | CCCCCCCC/C=C\CCCCCCCC(=O)Oc1ccc(-c2coc3cc(OC)ccc3c2=O)cc1 | 696.3 µmol/L | 1.01 mmol/L |  | 328 g |  | 1.65 mmol/L | 5.6 g/100 g body weight |  | 
5 | CC(C)CC(N(C)C)C1(c2ccc(Cl)cc2)CCC1 (stereo unspecified) [SIBUTRAMINE] |  |  |  |  |  |  |  |  | Activity (Rattus norvegicus [21]): 301 g; Activity (Rattus norvegicus [22]): 609.6 µmol/L; Activity (Rattus norvegicus [23]): 0.97 mmol/L; Activity (Rattus norvegicus [24]): 4.3 g; Activity (Rattus norvegicus [25]): 1.32 mmol/L
6 | CCCCCCCCCCCCCCCC(=O)Oc1ccc2c(=O)c(-c3ccc(OC)cc3)coc2c1 |  |  | Active |  | inactive |  |  | Active | 
7 | CCCCCCCCCCCCCCCCCC(=O)Oc1ccc(-c2coc3cc(OC)ccc3c2=O)cc1 | 738.1 µmol/L | 1.35 mmol/L |  | 352 g |  | 1.71 mmol/L | 6 g/100 g body weight |  | 
8 | CCc1ccc(CCOc2ccc(CC3SC(=O)NC3=O)cc2)nc1 (stereo unspecified) |  |  |  |  | Active |  |  |  | 
9 | COc1ccc(-c2coc3cc(O)ccc3c2=O)cc1 |  |  |  |  | Active |  |  |  | 
10 | CCCCC/C=C\C/C=C\CCCCCCCC(=O)Oc1ccc(-c2coc3cc(OC)ccc3c2=O)cc1 | 658.8 µmol/L | 1.03 mmol/L |  | 318 g |  | 1.67 mmol/L | 5.1 g/100 g body weight |  | 
11 | CCCCCCCCCCCCCCCCCC(=O)Oc1ccc2c(=O)c(-c3ccc(OC)cc3)coc2c1 | 730.2 µmol/L | 1.19 mmol/L | Active | 320 g | inactive | 1.57 mmol/L | 5.4 g/100 g body weight | Active | 
